Source: BindingDB's records for doi:10.1074/jbc.M114.556480 (Yale University, 2014)
Non-standard residues stand in square brackets, D forms with d. Residues, ends and D or L forms follow the SMILES beside them. pY = N[C@@H](Cc1ccc(OP(=O)(O)O)cc1)C(=O)O

Target: T1, Tyrosine-protein kinase ABL1 [131-238] (Human, UniProt P00519)
T1 construct: 131-238
T1 sequence (P00519 whole entry): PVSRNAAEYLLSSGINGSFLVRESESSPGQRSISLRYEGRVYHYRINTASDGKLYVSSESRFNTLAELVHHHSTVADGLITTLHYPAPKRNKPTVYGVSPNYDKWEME
Assay: Fluorescence Polarization Assay
Conditions: pH 7.25
Experimental: SH2 domains were dialyzed into binding buffer (50 mM Hepes, pH 7.25, 150 mM NaCl, 0.01% Nonidet P-40, 5% glycerol) and a 30-μl volume serially diluted into pre-chilled 384-well low flange black flat bottom non-binding microplates (Corning) while on ice. 5 μl of 35 nM fluorescent peptide dissolved in binding buffer was added to each well (final concentration 5 nM), mixed 5 times by pipetting, and plates were incubated at 4 °C for 40 min. Fluorescence polarization experiments were performed with an Analyst AD (Molecular Devices, Sunnyvale, CA) spectrofluorimeter. Each well was excited using 485 nm light and emission was read at 530 nm. Fluorescence polarization was measured 1 mm from the bottom of each well with an integration time of 560 ms. All experiments were conducted in triplicate.

Kd [µM] | SMILES
3.33 | CC[C@H](C)[C@H](NC(=O)[C@@H]1CCCN1C(=O)[C@H](CO)NC(=O)[C@@H](N)CO)C(=O)N[C@@H](Cc1ccc(OP(=O)(O)O)cc1)C(=O)N[C@@H](CCC(=O)O)C(=O)N[C@@H](CC(=O)O)C(=O)N[C@@H](C)C(=O)N[C@@H](C)C(=O)O [SSPIpYEDAA] (H-SSPI[pY]EDAA-OH)
3.27 | CC(C)[C@H](NC(=O)[C@@H]1CCCN1C(=O)[C@H](CCC(=O)O)NC(=O)[C@@H](N)CO)C(=O)N[C@@H](Cc1ccc(OP(=O)(O)O)cc1)C(=O)N[C@@H](CCC(=O)O)C(=O)N[C@H](C(=O)N[C@H](C(=O)N[C@@H](CCC(=O)O)C(=O)O)[C@@H](C)O)[C@@H](C)O [SEPVpYETTE] (H-SEPV[pY]ETTE-OH)
> 61.9 | C[C@@H](O)[C@H](NC(=O)[C@H](CC(=O)O)NC(=O)[C@H](CC(=O)O)NC(=O)[C@@H](N)CCC(=O)O)C(=O)N[C@@H](Cc1ccc(OP(=O)(O)O)cc1)C(=O)N[C@@H](CC(=O)O)C(=O)NCC(=O)N[C@@H](Cc1ccc(O)cc1)C(=O)N[C@@H](CCC(=O)O)C(=O)O [EDDTpYDGYE] (H-EDDT[pY]DGYE-OH)
